Experimental data as given in patent publication US20130296434A1, “FORMULATIONS AND METHODS FOR TREATING AMYLOIDOSIS” (Kiacta Sarl, priority 2005, published 2013).
Like-named read-outs stand apart in the source and are kept apart here.

Key:
[1] = Pharmacokinetic profile of a single oral dose of 800 mg PDS in subjects with varying degrees of renal impairment vs healthy volunteers; format: in vivo; conditions: human, plasma, single oral 800 mg; for AUC(0-inf): mean, only subjects with estimable elimination rate constant; for AUC(0-t): read-out: AUC0-Tlast
Experimental: An open-label, non-randomized, parallel group study to assess the pharmacokinetic profile of a single oral dose of 800 mg 1,3-propanedisulfonic acid disodium salt (PDS) in subjects with varying degrees of renal impairment as compared to healthy volunteers is conducted. Blood and urine samples are collected for 24 hours following dosing. Plasma and urine concentrations in 1,3-propanedisulfonic acid are determined using validated HPLC methods. […] Consequently, a decrease in dose appears to be necessary to maintain an acceptable systemic exposure in patients with impaired renal function.

[2] = Pharmacokinetics of PDS after single and multiple oral administration in AA amyloidosis patients; format: in vivo; conditions: human, plasma; for AUC(0-t) / Cmax / half-life: po; for half-life: multiple dose oral administration
Description: In the following examples, terms are as defined below. The pharmacokinetic parameters were derived by non-compartmental analysis using WinNonlin® (Pharsight Corp., Mountain View, Calif., USA). • Cmax—the maximum observed plasma concentration. • Tmax—the time of occurrence of Cmax. • AUC0-t—the area under the plasma concentration versus time curve from time zero to the last sampling time at which concentrations were at or above the limit of quantification, calculated by the linear trapezoidal rule. • AUC∞—the area under the plasma concentrations versus time curve from time zero to infinity, calculated from AUC0-t+(Clast/λz), where Clast is the last observed quantifiable concentration and λz is the apparent terminal rate constant. • t1/2 the apparent terminal half-life, calculated from ln 2/λz
The safety, efficacy and pharmacokinetics of PDS after single and multiple oral administration in subjects with AA amyloidosis is determined. This is a multicenter, multinational, randomized, double-blind, placebo-controlled, and parallel-design study to assess the pharmacokinetic profile of single and repeated doses of PDS. Dosing depends on the severity or renal impairment in a subject: subjects having creatinine clearance (ClCr)>80 mL/min receive 1200 mg BID; for ClCr between 30 and 80 mL/min, the subject receives 800 mg BID; and for ClCr between 20 and 30 mL/min, the subject receives 400 mg BID. If ClCr decreases to the next lower range level, the dose regimen is adjusted accordingly. PDS is administered as a single oral dose for a subset of AA amyloidosis patients on Month 0 and 24 visits. Following the single administration on Month 0, PDS is administered twice daily for 24 months. Blood samples are collected through 24 hours after the doses on Month 0 and 24, and through 8 hours after the doses on Month 4, 8, 12 visits. Plasma concentrations of PDS are determined using validated HPLC methods. Following multiple dose oral administration of PDS, the range of accumulation across subjects is 1.75 to 3.44. Based on the accumulation factor, the mean T1/2 calculated is 15 hours with a range of 10 to 24 hours.

[3] = Healthy, GFR >80 mL/min, n = 6, mean
[4] = Mild renal impairment, GFR 50-80 mL/min, n = 6, mean
[5] = Moderate renal impairment, GFR 30-50 mL/min, n = 4, mean
[6] = Severe renal impairment, GFR <30 mL/min, n = 6, mean

SMILES: O=S(=O)([O-])CCCS(=O)(=O)[O-].[Na+].[Na+] [PDS, 1,3-propanedisulfonic acid, disodium salt]
- AUC(0-inf) ([1]; Healthy, GFR >80 mL/min): 5370 ng·h/mL
- Cmax [1, 3]: 1240 ng/mL
- AUC(0-t) [1, 3]: 3160 ng·h/mL
- Tmax ([1]; Healthy, GFR >80 mL/min, n = 6, median): 0.5 h
- AUC(0-inf) ([1]; Mild renal impairment, GFR 50-80 mL/min): 13000 ng·h/mL
- Cmax [1, 4]: 3060 ng/mL
- AUC(0-t) [1, 4]: 9110 ng·h/mL
- Tmax ([1]; Mild renal impairment, GFR 50-80 mL/min, n = 6, median): 0.5 h
- AUC(0-inf) ([1]; Moderate renal impairment, GFR 30-50 mL/min): 10700 ng·h/mL
- Cmax [1, 5]: 2100 ng/mL
- AUC(0-t) [1, 5]: 9450 ng·h/mL
- Tmax ([1]; Moderate renal impairment, GFR 30-50 mL/min, n = 4, median): 0.5 h
- AUC(0-inf) ([1]; Severe renal impairment, GFR <30 mL/min): 43100 ng·h/mL
- Cmax [1, 6]: 2210 ng/mL
- AUC(0-t) [1, 6]: 29200 ng·h/mL
- Tmax ([1]; Severe renal impairment, GFR <30 mL/min, n = 6, median): 2.5 h
- Tmax ([2]; Dose 400 (mg BID), Month 0 single oral dose, n = 2, mean): 3 h
- Tmax ([2]; Dose 400 (mg BID), Month 24 repeated oral doses, n = 3, mean): 1.83 h
- Tmax ([2]; Dose 800 (mg BID), Month 0 single oral dose, n = 5, mean): 2.95 h
- Tmax ([2]; Dose 800 (mg BID), Month 24 repeated oral doses, n = 4, mean): 1.85 h
- Tmax ([2]; Dose 1200 (mg BID), Month 0 single oral dose, n = 4, mean): 0.69 h
- Tmax ([2]; Dose 1200 (mg BID), Month 24 repeated oral doses, n = 1): 0.68 h
- AUC(0-t) ([2]; 400 mg BID, Month 24 repeated oral doses, n = 3, mean, read-out: AUC(0-12)): 17600 ng·h/mL
- AUC(0-t) ([2]; 400 mg BID, Month 24 repeated oral doses, n = 3, mean, read-out: AUC(0-tlast)): 25700 ng·h/mL
- AUC(0-t) ([2]; 400 mg, Dose 400 (mg BID), Month 0 single oral dose, n = 2, mean, read-out: AUC(0-12)): 7410 ng·h/mL
- AUC(0-t) ([2]; 400 mg, Dose 400 (mg BID), Month 0 single oral dose, n = 2, mean, read-out: AUC(0-tlast)): 11700 ng·h/mL
- Cmax ([2]; 400 mg, Dose 400 (mg BID), Month 24 repeated oral doses, n = 3, mean): 2160 ng/mL
- Cmax ([2]; 400 mg, Dose 400 (mg BID, ClCr 20-30 mL/min), Month 0 single oral dose, n = 2, mean): 841 ng/mL
- Cmax ([2]; 800 mg BID, Month 24 repeated oral doses, n = 4, mean): 1900 ng/mL
- AUC(0-t) ([2]; 800 mg BID, Month 24 repeated oral doses, n = 4, mean, read-out: AUC(0-12)): 13700 ng·h/mL
- AUC(0-t) ([2]; 800 mg BID, Month 24 repeated oral doses, n = 4, mean, read-out: AUC(0-tlast)): 21200 ng·h/mL
- AUC(0-t) ([2]; 800 mg, Dose 800 (mg BID), Month 0 single oral dose, n = 5, mean, read-out: AUC(0-12)): 5950 ng·h/mL
- AUC(0-t) ([2]; 800 mg, Dose 800 (mg BID), Month 0 single oral dose, n = 5, mean, read-out: AUC(0-tlast)): 9810 ng·h/mL
- Cmax ([2]; 800 mg, Dose 800 (mg BID, ClCr 30-80 mL/min), Month 0 single oral dose, n = 5, mean): 812 ng/mL
- Cmax ([2]; 1200 mg BID, Month 24 repeated oral doses, n = 1): 637 ng/mL
- AUC(0-t) ([2]; 1200 mg BID, Month 24 repeated oral doses, n = 1, read-out: AUC(0-12)): 4930 ng·h/mL
- AUC(0-t) ([2]; 1200 mg BID, Month 24 repeated oral doses, n = 1, read-out: AUC(0-tlast)): 9140 ng·h/mL
- AUC(0-t) ([2]; 1200 mg, Dose 1200 (mg BID), Month 0 single oral dose, n = 4, mean, read-out: AUC(0-12)): 4210 ng·h/mL
- AUC(0-t) ([2]; 1200 mg, Dose 1200 (mg BID), Month 0 single oral dose, n = 4, mean, read-out: AUC(0-tlast)): 5630 ng·h/mL
- Cmax ([2]; 1200 mg, Dose 1200 (mg BID, ClCr >80 mL/min), Month 0 single oral dose, n = 4, mean): 867 ng/mL
- half-life ([2]; read-out: mean T1/2 calculated based on the accumulation factor (converted)): 15 h
- half-life ([2]; read-out: range of T1/2 calculated based on the accumulation factor): 10 to 24 h
